# Measurements published in patent US20200256853A1, “Models of Reconstructed Sensitive Skin” (Laboratoires Expanscience, priority 2017, published 2020).
# How the values were obtained:
# Format in all cases: cell-based
# [1] = test system: reconstructed Sensitive Skin model (reconstructed human epidermises treated with 0.6% lactic acid); assay: Intracellular measurements of inflammatory mediators (ELISA) in reconstructed Sensitive Skin model, Example 3; settings: for IL1RA/IL1-alpha ratio Change / Intracellular IL1-alpha Change / Intracellular IL1RA Change / Intracellular IL8 Change: change vs. lactic acid
# Protocol: Intracellular amounts of IL-1α, IL8 and IL1-RA were determined by ELISA (R&D Systems) in ground epidermis (n=2).
# (§1) Reconstructed human epidermises were obtained from the keratinocytes of a […] donor using the method derived from Poumay et al. (Arch Dermatol Res 2004; 296:203-11). After 2 days of immersion culture, the reconstructed human epidermises were cultured at the air/liquid interface for 10 days.
# (§2) Epidermises at differentiation day 10 was treated or not (control) systemically with the test compounds and incubated for 24 hours.
# (§3) The amount of inflammatory mediators IL-1alpha (IL1α), IL-8 and PGE2 present in skin culture supernatants was evaluated using ELISA kits (R&D Systems). • Evaluations of intracellular inflammatory markers IL-1α, IL8 and IL1-RA (n=2)
# (§4) Same protocol as described in Example 2. • Determination of Poly-Unsaturated Fatty Acids (PUFAs) (n=2)
# [2] = test system: reconstructed Sensitive Skin model (reconstructed human epidermises treated with 0.6% lactic acid); assay: Determinations of released inflammatory mediators (ELISA) in reconstructed Sensitive Skin model, Example 3; settings: for Released IL1-alpha Change / Released IL8 Change / Released PGE2 Change: change vs. lactic acid
# Protocol: as §1, §2, §3
# [3] = test system: reconstructed Sensitive Skin model (reconstructed human epidermises treated with 0.6% lactic acid); assay: Determination of PUFAs (GC/MS) in reconstructed Sensitive Skin model, Example 3; settings: for C18:1 Change / C18:2 LA Change / C20:4 AA Change: change vs. lactic acid
# Protocol: Screening of polyunsaturated fatty acids (PUFAs) expressed by the epidermis was carried out by GC/MS analysis of samples obtained after grinding the epidermises (n=2).
# The amounts were normalized by C16:0 (palmitic acid), which is representative of the overall lipid content of the epidermis.
# as §1, §2, §4
# Same protocol as described in Example 2.
# [4] = OX100 100 μM + lactic acid 0.6%
smiles,measurement,setting,value
"CC1(C)[C@@H](O[C@H]2O[C@H](C(=O)[O-])[C@@H](O)[C@H](O)[C@H]2O[C@@H]2O[C@H](C(=O)[O-])[C@@H](O)[C@H](O)[C@H]2O)CC[C@]2(C)[C@H]3C(=O)C=C4[C@@H]5C[C@@](C)(C(=O)O)CC[C@]5(C)CC[C@@]4(C)[C@]3(C)CC[C@@H]12.[K+].[K+] [GLY, Dipotassium glycyrrhizinate]",IL1RA/IL1-alpha ratio Mean ± SD,[1]; GLY 0.005% + lactic acid 0.6%,25.6 ± 1.29
same,Intracellular IL1-alpha Mean ± SD,[1]; GLY 0.005% + lactic acid 0.6%,987.5 ± 101.1 pg/mg protein
same,Intracellular IL1RA Mean ± SD,[1]; GLY 0.005% + lactic acid 0.6%,25195 ± 1305 pg/mg protein
same,Intracellular IL8 Mean ± SD,[1]; GLY 0.005% + lactic acid 0.6%,78.39 ± 6.350 pg/mg protein
same,IL1RA/IL1-alpha ratio Change,[1]; GLY 0.005% + lactic acid 0.6%,+3%
same,Intracellular IL1-alpha Change,[1]; GLY 0.005% + lactic acid 0.6%,−5%
same,Intracellular IL1RA Change,[1]; GLY 0.005% + lactic acid 0.6%,−2%
same,Intracellular IL8 Change,[1]; GLY 0.005% + lactic acid 0.6%,−1%
same,IL1RA/IL1-alpha ratio Mean ± SD,[1]; GLY 0.01% + lactic acid 0.6%,19.1 ± 0.212
same,Intracellular IL1-alpha Mean ± SD,[1]; GLY 0.01% + lactic acid 0.6%,587.0 ± 63.64 pg/mg protein
same,Intracellular IL1RA Mean ± SD,[1]; GLY 0.01% + lactic acid 0.6%,11244 ± 1341 pg/mg protein
same,Intracellular IL8 Mean ± SD,[1]; GLY 0.01% + lactic acid 0.6%,50.17 ± 3.366 pg/mg protein
same,IL1RA/IL1-alpha ratio Change,[1]; GLY 0.01% + lactic acid 0.6%,−23%
same,Intracellular IL1-alpha Change,[1]; GLY 0.01% + lactic acid 0.6%,−44%
same,Intracellular IL1RA Change,[1]; GLY 0.01% + lactic acid 0.6%,−56%
same,Intracellular IL8 Change,[1]; GLY 0.01% + lactic acid 0.6%,−37%
same,IL1RA/IL1α ratio (in words),[1]; concentration not given,maintained the IL1RA/IL1α ratio
same,Increase in intracellular IL1RA level induced by lactic acid treatment (in words),[1]; concentration not given,significantly inhibited
same,Increase in intracellular IL1α level induced by lactic acid treatment (in words),[1]; concentration not given,significantly inhibited
same,Increase in intracellular IL8 level induced by lactic acid treatment (in words),[1]; concentration not given,significantly inhibited
same,Released IL1-alpha Mean ± Standard deviation,[2]; GLY 0.005% + lactic acid 0.6%,28 ± 10 pg/mL
same,Released IL8 Mean ± Standard deviation,[2]; GLY 0.005% + lactic acid 0.6%,211 ± 41 pg/mL
same,Released PGE2 Mean ± Standard deviation,[2]; GLY 0.005% + lactic acid 0.6%,94 ± 36 pg/mL
same,Released IL1-alpha Change,[2]; GLY 0.005% + lactic acid 0.6%,−59%
same,Released IL8 Change,[2]; GLY 0.005% + lactic acid 0.6%,+1%
same,Released PGE2 Change,[2]; GLY 0.005% + lactic acid 0.6%,−52%
same,Released IL1-alpha Mean ± Standard deviation,[2]; GLY 0.01% + lactic acid 0.6%,35 ± 16 pg/mL
same,Released IL8 Mean ± Standard deviation,[2]; GLY 0.01% + lactic acid 0.6%,244 ± 138 pg/mL
same,Released PGE2 Mean ± Standard deviation,[2]; GLY 0.01% + lactic acid 0.6%,137 ± 83 pg/mL
same,Released IL1-alpha Change,[2]; GLY 0.01% + lactic acid 0.6%,−49%
same,Released IL8 Change,[2]; GLY 0.01% + lactic acid 0.6%,+17%
same,Released PGE2 Change,[2]; GLY 0.01% + lactic acid 0.6%,−31%
same,Release of IL1α induced by lactic acid (in words),[2]; concentration not given,significantly inhibited
same,Release of PGE2 induced by lactic acid (in words),[2]; concentration not given,significantly inhibited
same,"C18:1 Mean ± SD, amount normalized to C16:0",[3]; GLY 0.005% + lactic acid 0.6%,0.2785
same,"C18:2 LA Mean ± SD, amount normalized to C16:0",[3]; GLY 0.005% + lactic acid 0.6%,0.1600
same,"C20:4 AA Mean ± SD, amount normalized to C16:0",[3]; GLY 0.005% + lactic acid 0.6%,0.0435
same,C18:1 Change,[3]; GLY 0.005% + lactic acid 0.6%,−28%
same,C18:2 LA Change,[3]; GLY 0.005% + lactic acid 0.6%,−25%
same,C20:4 AA Change,[3]; GLY 0.005% + lactic acid 0.6%,−24%
same,"C18:1 Mean ± SD, amount normalized to C16:0",[3]; GLY 0.01% + lactic acid 0.6%,0.2680
same,"C18:2 LA Mean ± SD, amount normalized to C16:0",[3]; GLY 0.01% + lactic acid 0.6%,0.1440
same,"C20:4 AA Mean ± SD, amount normalized to C16:0",[3]; GLY 0.01% + lactic acid 0.6%,0.0395
same,C18:1 Change,[3]; GLY 0.01% + lactic acid 0.6%,−31%
same,C18:2 LA Change,[3]; GLY 0.01% + lactic acid 0.6%,−32%
same,C20:4 AA Change,[3]; GLY 0.01% + lactic acid 0.6%,−31%
"CCCCCCCCCCCC1=NC(C)(C)CO1 [OX100, Cycloceramide]",IL1RA/IL1-alpha ratio Mean ± SD,[1]; OX100 10 μM + lactic acid 0.6%,25.6 ± 0.276
same,Intracellular IL1-alpha Mean ± SD,[1]; OX100 10 μM + lactic acid 0.6%,919.5 ± 53.03 pg/mg protein
same,Intracellular IL1RA Mean ± SD,[1]; OX100 10 μM + lactic acid 0.6%,23566 ± 1624 pg/mg protein
same,Intracellular IL8 Mean ± SD,[1]; OX100 10 μM + lactic acid 0.6%,76.24 ± 8.309 pg/mg protein
same,IL1RA/IL1-alpha ratio Change,[1]; OX100 10 μM + lactic acid 0.6%,+4%
same,Intracellular IL1-alpha Change,[1]; OX100 10 μM + lactic acid 0.6%,−12%
same,Intracellular IL1RA Change,[1]; OX100 10 μM + lactic acid 0.6%,−8%
same,Intracellular IL8 Change,[1]; OX100 10 μM + lactic acid 0.6%,−4%
same,IL1RA/IL1-alpha ratio Mean ± SD,[1]; [4],20.5 ± 0.481
same,Intracellular IL1-alpha Mean ± SD,[1]; [4],713.5 ± 113.8 pg/mg protein
same,Intracellular IL1RA Mean ± SD,[1]; [4],14581 ± 1989 pg/mg protein
same,Intracellular IL8 Mean ± SD,[1]; [4],56.95 ± 7.460 pg/mg protein
same,IL1RA/IL1-alpha ratio Change,[1]; [4],−17%
same,Intracellular IL1-alpha Change,[1]; [4],−32%
same,Intracellular IL1RA Change,[1]; [4],−43%
same,Intracellular IL8 Change,[1]; [4],−28%
same,IL1RA/IL1α ratio (in words),[1]; concentration not given,maintained the balance of the IL1RA/IL1α ratio
same,Increase in intracellular IL1RA level induced by lactic acid treatment (in words),[1]; concentration not given,significantly inhibited
same,Released IL1-alpha Mean ± Standard deviation,[2]; OX100 10 μM + lactic acid 0.6%,27 ± 13 pg/mL
same,Released IL8 Mean ± Standard deviation,[2]; OX100 10 μM + lactic acid 0.6%,175 ± 30 pg/mL
same,Released PGE2 Mean ± Standard deviation,[2]; OX100 10 μM + lactic acid 0.6%,98 ± 28 pg/mL
same,Released IL1-alpha Change,[2]; OX100 10 μM + lactic acid 0.6%,−61%
same,Released IL8 Change,[2]; OX100 10 μM + lactic acid 0.6%,−16%
same,Released PGE2 Change,[2]; OX100 10 μM + lactic acid 0.6%,−50%
same,Released IL1-alpha Mean ± Standard deviation,[2]; [4],31 ± 19 pg/mL
same,Released IL8 Mean ± Standard deviation,[2]; [4],146 ± 24 pg/mL
same,Released PGE2 Mean ± Standard deviation,[2]; [4],100 ± 48 pg/mL
same,Released IL1-alpha Change,[2]; [4],−54%
same,Released IL8 Change,[2]; [4],−30%
same,Released PGE2 Change,[2]; [4],−49%
same,Release of IL1α induced by lactic acid (in words),[2]; concentration not given,significantly inhibited
same,Release of IL8 induced by lactic acid (in words),[2]; concentration not given,significantly inhibited
same,Release of PGE2 induced by lactic acid (in words),[2]; concentration not given,significantly inhibited
same,"C18:1 Mean ± SD, amount normalized to C16:0",[3]; OX100 10 μM + lactic acid 0.6%,0.2795
same,"C18:2 LA Mean ± SD, amount normalized to C16:0",[3]; OX100 10 μM + lactic acid 0.6%,0.1515
same,"C20:4 AA Mean ± SD, amount normalized to C16:0",[3]; OX100 10 μM + lactic acid 0.6%,0.0380
same,C18:1 Change,[3]; OX100 10 μM + lactic acid 0.6%,−28%
same,C18:2 LA Change,[3]; OX100 10 μM + lactic acid 0.6%,−29%
same,C20:4 AA Change,[3]; OX100 10 μM + lactic acid 0.6%,−34%
same,"C18:1 Mean ± SD, amount normalized to C16:0",[3]; [4],0.2065
same,"C18:2 LA Mean ± SD, amount normalized to C16:0",[3]; [4],0.0970
same,"C20:4 AA Mean ± SD, amount normalized to C16:0",[3]; [4],0.0265
same,C18:1 Change,[3]; [4],−47%
same,C18:2 LA Change,[3]; [4],−54%
same,C20:4 AA Change,[3]; [4],−54%
